Common to all, as to experiment: relative viability (nuclei count vs DMSO), 5 days (fraction); higher = more cells survive
Compound in the experiment “Doxorubicin + Phenformin”: COc1cccc2c1C(=O)c1c(O)c3c(c(O)c1C2=O)C[C@@](O)(C(=O)CO)C[C@@H]3O[C@H]1C[C@H](N)[C@H](O)[C@H](C)O1 [Doxorubicin] + N=C(N)NC(=N)NCCc1ccccc1 [Phenformin] (partner 250 µM)
The method, boiled down:
(§1)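 Five library-drug doses in √10 steps were combined with a fixed anchor-drug dose, or a single drug was given alone, by pin tool to lung cancer cell lines in 1536-well plates the day after seeding. Nuclei were stained and counted after 5 days. Relative viability is the nuclei count in treated wells over that in vehicle wells, taken as the median of duplicate plates.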

Compound in the experiment “BAY61-3606 + Luminespib”: COC1=C(C=C(C=C1)C2=CC3=NC=CN3C(=N2)NC4=C(C=CC=N4)C(=O)N)OC [BAY61-3606] + CCNC(=O)c1noc(-c2cc(C(C)C)c(O)cc2O)c1-c1ccc(CN2CCOCC2)cc1 [Luminespib] (partner 0.01 µM)
The method, boiled down: as §1

Compound in experiment [1]: COc1cccc2c1C(=O)c1c(O)c3c(c(O)c1C2=O)C[C@@](O)(C(=O)CO)C[C@@H]3O[C@H]1C[C@H](N)[C@H](O)[C@H](C)O1 [Doxorubicin] + CC(=O)c1c(C)c2cnc(Nc3ccc(N4CCNCC4)cn3)nc2n(C2CCCC2)c1=O [Palbociclib] (partner 0.5 µM)
The essentials:
as §1

Compound in the experiment “Doxorubicin + Olaparib”: COc1cccc2c1C(=O)c1c(O)c3c(c(O)c1C2=O)C[C@@](O)(C(=O)CO)C[C@@H]3O[C@H]1C[C@H](N)[C@H](O)[C@H](C)O1 [Doxorubicin] + O=C(c1cc(Cc2n[nH]c(=O)c3ccccc23)ccc1F)N1CCN(C(=O)C2CC2)CC1 [Olaparib] (partner 8 µM)
The essentials:
as §1

Consider UMC-11, for which the relative viability with Doxorubicin + Phenformin (first compound 0.001 µM) amounted to 0.307; with Doxorubicin + Phenformin (first compound 0.003162 µM) it was 0.247; in the experiment with Doxorubicin + Phenformin (first compound 0.01 µM) it was 0.313; in the experiment with Doxorubicin + Phenformin (first compound 0.03162 µM) it was 0.207; in the experiment with Doxorubicin + Phenformin (first compound 0.1 µM), 0.233; with BAY61-3606 + Luminespib (first compound 0.02 µM), 1.12. The relative viability with BAY61-3606 + Luminespib (first compound 0.06325 µM) worked out at 1.17; with BAY61-3606 + Luminespib (first compound 0.2 µM), 1.08; with BAY61-3606 + Luminespib (first compound 0.6325 µM), 1.05; in the experiment with BAY61-3606 + Luminespib (first compound 2 µM) it was 0.921; in experiment [1] (first compound 0.001 µM), 0.378; in experiment [1] (first compound 0.003162 µM) it was 0.339. In addition, the relative viability in experiment [1] (first compound 0.01 µM) was 0.314; in experiment [1] (first compound 0.03162 µM) it was 0.256; in experiment [1] (first compound 0.1 µM) it was 0.325; with Doxorubicin + Olaparib (first compound 0.001 µM), 0.38; in the experiment with Doxorubicin + Olaparib (first compound 0.003162 µM) it was 0.401; with Doxorubicin + Olaparib (first compound 0.01 µM) it was 0.322. Also, the relative viability with Doxorubicin + Olaparib (first compound 0.03162 µM) worked out at 0.302; with Doxorubicin + Olaparib (first compound 0.1 µM), 0.275.

Values taken from the supplement of paper PMC10307832.
